Laboratory results taken from article PMC7997369, “Assessment of the Multifunctional Behavior of Lupin Peptide P7 and Its Metabolite Using an Integrated Strategy” (Journal of Agricultural and Food Chemistry, 2020).
No end group written: not given here.

How the values were obtained:
[1] = target: T1, HMGCoAR (catalytic domain) (Homo sapiens, UniProt P04035); conditions: read-out: IC50, in vitro HMGCoAR activity; cited from earlier work
T1 construct: finally the HMGCoAR (catalytic domain) (2 µL); purchased Sigma
T1 sequence (P04035 426-888 limits assumed): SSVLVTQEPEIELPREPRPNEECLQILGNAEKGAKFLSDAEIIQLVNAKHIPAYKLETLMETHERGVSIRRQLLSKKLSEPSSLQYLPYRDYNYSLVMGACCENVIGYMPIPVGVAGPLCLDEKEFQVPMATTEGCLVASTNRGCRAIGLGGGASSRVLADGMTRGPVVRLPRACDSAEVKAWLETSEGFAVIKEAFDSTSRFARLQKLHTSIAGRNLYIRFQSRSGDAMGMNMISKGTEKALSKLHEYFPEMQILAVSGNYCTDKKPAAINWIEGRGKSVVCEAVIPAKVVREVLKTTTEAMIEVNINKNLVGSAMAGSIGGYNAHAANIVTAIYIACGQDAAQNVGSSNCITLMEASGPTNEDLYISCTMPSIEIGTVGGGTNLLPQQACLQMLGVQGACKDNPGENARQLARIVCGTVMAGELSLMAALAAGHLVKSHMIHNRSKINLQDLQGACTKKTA
Description: To express their activity in vivo, peptides masked within a protein sequence need not only be released by specific and selective proteases but may also be absorbed at the intestinal level and enter blood circulation to reach the target organs.[2] Differentiated Caco-2 cells still represent the best available model system for intestinal transport studies.[3]−[5] […] To function as a competitive inhibitor of HMGCoAR, a peptide should mimic the hydroxymethylglutaryl moiety. To achieve this goal, the conformation and side chain groups play a more important role than the total hydrophobicity. Moreover, the correlation of the inhibitory activity with the peptide length has not yet been established, while it has been confirmed that a ...

[2] = target: purified human recombinant DPP-IV enzyme (Homo sapiens, UniProt P27487); conditions: read-out: IC50, in vitro on the DPP-IV enzyme; cited from earlier work
purified human recombinant DPP-IV enzyme, sequence (P27487 whole entry): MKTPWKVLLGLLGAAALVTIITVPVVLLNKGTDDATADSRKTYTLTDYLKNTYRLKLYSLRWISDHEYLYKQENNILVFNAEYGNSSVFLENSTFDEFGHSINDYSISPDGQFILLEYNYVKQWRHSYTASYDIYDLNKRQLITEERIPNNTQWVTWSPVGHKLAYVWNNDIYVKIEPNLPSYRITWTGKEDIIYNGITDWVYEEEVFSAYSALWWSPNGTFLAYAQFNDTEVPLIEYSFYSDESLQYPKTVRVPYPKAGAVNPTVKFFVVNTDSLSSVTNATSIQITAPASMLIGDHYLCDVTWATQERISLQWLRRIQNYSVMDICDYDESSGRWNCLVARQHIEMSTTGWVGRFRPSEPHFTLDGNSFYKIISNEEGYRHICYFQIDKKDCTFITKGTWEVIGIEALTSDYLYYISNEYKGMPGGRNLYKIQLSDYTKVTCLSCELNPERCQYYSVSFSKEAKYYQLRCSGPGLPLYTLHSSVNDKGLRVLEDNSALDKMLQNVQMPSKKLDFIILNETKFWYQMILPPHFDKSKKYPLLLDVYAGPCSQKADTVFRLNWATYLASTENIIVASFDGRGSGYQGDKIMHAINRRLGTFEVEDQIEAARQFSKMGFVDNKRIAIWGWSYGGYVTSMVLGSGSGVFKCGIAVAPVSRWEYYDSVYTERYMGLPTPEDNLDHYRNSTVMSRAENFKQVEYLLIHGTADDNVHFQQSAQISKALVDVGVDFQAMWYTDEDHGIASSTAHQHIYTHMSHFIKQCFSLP

[3] = target: angiotensin-converting enzyme (ACE) (Homo sapiens, UniProt P12821); test: Cellular ACE inhibitory assay in renal HK-2 cells; type: cell-based; parameters: endogenous in cells; conditions: HK-2 cells treated 24 h at 37 °C with P7 0.1–250 μM; ACE activity in cell lysates, fluorescent Abz substrate; mean ± sd of three independent experiments in triplicate
angiotensin-converting enzyme (ACE), sequence (P12821 30-1306): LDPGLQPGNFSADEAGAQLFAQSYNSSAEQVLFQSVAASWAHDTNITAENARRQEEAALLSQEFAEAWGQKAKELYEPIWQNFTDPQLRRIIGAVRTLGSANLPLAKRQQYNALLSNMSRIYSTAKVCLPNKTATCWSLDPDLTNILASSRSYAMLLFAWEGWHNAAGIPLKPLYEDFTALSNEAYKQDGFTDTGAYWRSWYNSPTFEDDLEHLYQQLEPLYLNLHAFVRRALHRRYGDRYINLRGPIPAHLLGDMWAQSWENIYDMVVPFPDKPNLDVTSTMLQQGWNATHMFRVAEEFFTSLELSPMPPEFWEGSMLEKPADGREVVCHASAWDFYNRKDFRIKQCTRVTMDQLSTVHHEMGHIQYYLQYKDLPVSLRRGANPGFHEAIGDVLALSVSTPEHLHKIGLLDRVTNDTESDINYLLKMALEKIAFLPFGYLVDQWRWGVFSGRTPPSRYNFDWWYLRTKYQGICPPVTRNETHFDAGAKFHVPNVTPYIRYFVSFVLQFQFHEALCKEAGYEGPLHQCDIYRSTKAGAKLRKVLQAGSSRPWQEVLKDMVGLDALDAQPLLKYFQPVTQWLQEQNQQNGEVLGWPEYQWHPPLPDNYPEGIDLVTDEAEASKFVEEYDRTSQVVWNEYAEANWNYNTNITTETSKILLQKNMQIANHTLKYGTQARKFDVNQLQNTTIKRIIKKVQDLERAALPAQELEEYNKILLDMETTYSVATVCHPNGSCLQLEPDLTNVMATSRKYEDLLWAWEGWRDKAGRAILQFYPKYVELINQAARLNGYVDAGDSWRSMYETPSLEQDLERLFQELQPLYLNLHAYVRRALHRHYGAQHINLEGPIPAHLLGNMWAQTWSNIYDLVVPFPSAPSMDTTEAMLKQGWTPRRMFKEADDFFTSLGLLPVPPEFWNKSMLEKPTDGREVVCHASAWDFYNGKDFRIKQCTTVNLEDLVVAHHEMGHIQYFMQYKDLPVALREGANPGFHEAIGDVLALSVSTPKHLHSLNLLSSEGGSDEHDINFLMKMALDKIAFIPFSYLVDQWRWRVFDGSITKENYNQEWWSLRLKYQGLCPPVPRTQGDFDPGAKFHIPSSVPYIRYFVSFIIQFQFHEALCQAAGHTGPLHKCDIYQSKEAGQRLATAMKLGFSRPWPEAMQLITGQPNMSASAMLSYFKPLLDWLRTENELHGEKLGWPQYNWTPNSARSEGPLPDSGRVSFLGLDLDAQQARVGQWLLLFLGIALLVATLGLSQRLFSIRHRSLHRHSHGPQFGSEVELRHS
Experimental: HK-2 cells from the American Type Culture Collection (ATCC) were cultured using Dulbecco’s modified Eagle’s medium–F12 (DMEM–F12) containing 25 mM glucose, 4 mM stable L-glutamine, 100 units […] penicillin, and 100 μg […] streptomycin, supplemented with 10% heat-inactivated fetal bovine serum (FBS, Hyclone Laboratories, Logan, UT, U.S.A.). […]
For the experiments, HK-2 and Caco-2 cells were seeded on 96-well plates at a density of 5 × 10^4 cells/well for 24 h. […] Total proteins were quantified by the Bradford method, and 2 μL of the supernatant (the equivalent of 2 μg of total proteins) was added to 18 μL of ACE1 lysis buffer in each well in a black 96-well plate with a clear bottom. […] Then, 20 μL of diluted ACE1 substrate [o-aminobenzoyl peptide (Abz-based peptide) substrate, 4% of ACE1 substrate in the assay buffer] was added in each well, except the background well, and the fluorescence (excitation/emission of 330/430 nm) was measured in a kinetic mode for 10 min at 37 °C.

LTFPGSAED [P7]
IC50 [1]: 68.4 µM
IC50 [2]: 228 µM
IC50 [3]: 79.6 µM
